Experimental data: PubChem BioAssay AID1224915

Test system: MDA-MB-231 antiproliferation
Test: PubChem AID 1224915

EC50: 9 nM
Structure (SMILES): COc1cc(-c2nn(CCN3CCC(N(C)C)CC3)c3ncnc(N)c23)ccc1NC(=O)OC(C)(C)C
